In US20210085640A1, “ACYLATED CATECHIN POLYPHENOLS AND METHODS OF THEIR USE FOR THE TREATMENT OF CANCER” (Flagship Pioneering Innovations V, Inc., priority 2018, published 2021):

Experiments:
[1] = Stability in Simulated Gastric Fluid (SGF); assay type: in vitro ADME; conditions: SGF pH 1.6 with pepsin, 1 μM, 37° C.
Method: Stability of acylated active agents in Simulated Gastric Fluid (SGF). This assay was used to assess the stability of an acylated active agent in a stomach.
Medium was prepared by dissolving 2 g of sodium chloride in 0.6 L in ultrapure water (MilliQ®, Millipore Sigma, Darmstadt, Germany). The pH was adjusted to 1.6 with 1N hydrochloric acid, and the volume was then adjusted to 1 L with purified water.
60 mg FaSSIF powder (Biorelevant™, London, UK) were dissolved in 500 mL buffer (above). Pepsin was added (0.1 mg/mL) (Millipore Sigma, Darmstadt, Germany), and the solution was stirred. The resulting SGF media were used fresh for each experiment.
(§1) Test compounds were dissolved in DMSO stock to 1 mM. An aliquot of the DMSO stock solution was removed and diluted in the SGF Media in 15 mL falcon tubes to generate a total compound concentration of 1 μM. A 1 mL aliquot was immediately removed and diluted once with 1 volume of acetonitrile for T0 timepoint. The mixture was sealed and mixed at 37° C. in an incubator. Aliquots (1 mL) were removed at regular intervals and immediately quenched by the addition of 1 volume of acetonitrile. The resulting samples were analyzed by LC/MS to determine degradation rates

[2] = Stability in Simulated Intestinal Fluid (SIF); assay type: in vitro ADME; conditions: for Assay 2 (SIF) (% @ Remaining 4 hours): SIF pH 6.7 with pancreatin, 1 μM, 37° C.; for selective delivery to the upper intestine: conclusion drawn from Table 1 (SGF and SIF stability)
Method: SIF Stability of acylated active agents in Simulated Intestinal Fluid (SIF). This assay was used to assess the stability of an acylated active agent in a small intestine.
Phosphate buffer was prepared by dissolving 0.42 g of sodium hydroxide pellets and 3.95 g of monobasic sodium phosphate monohydrate and 6.19 g of sodium chloride in ultrapure water (MilliQ®, Millipore Sigma, Darmstadt, Germany). The pH was adjusted to 6.7 using aq. HCl and aq. NaOH, as necessary, and the solution was diluted with ultrapure water to produce 1 L of the pH 6.7 buffer.
112 mg FaSSIF powder (Biorelevant™, London, UK) was dissolved in 50 mL of the pH 6.7 buffer. 2 to 3 mL of the resulting solution were then added to 500 mg pancreatin (Millipore Sigma, Darmstadt, Germany). The resulting mixture was agitated by finger tapping the vessel containing the mixture until milky suspension formed. At this time, the remainder of the 50 mL FaSSiF/pH 6.7 buffer solution was added. The resulting suspension was flipped upside down 10 times to produce SIF, which was used fresh.
as §1, with “SIF media” for “SGF Media”, “produce” for “generate”, “mixture with a tested” for “total”, “agitated” for “mixed”, “rates.” for “rates”

[3] = Fecal Incubation Stability; assay type: in vitro ADME; conditions: fecal slurry, anaerobic, 1 or 10 μM
Method: Fecal Incubation Stability. This assay was used to assess the stability of an acylated active agent in a large intestine. All experiments were performed in an anaerobic chamber containing 90% nitrogen, 5% hydrogen and 5% carbon dioxide. Fecal matter in a slurry (15% VW is added to 96 well plates containing YCFA media or other suitable media (1.6 mL). Compounds were added to each individual well to reach a final analyte concentration of 1 or 10 μM, and the material was mixed by pipetting. At set time points a sample was removed, quenched with acetonitrile, and analyzed by LC/MS.

CD4^+CD25^+ Treg cells = assay: In vivo induction of CD4+CD25+ Treg cells in high-fat diet fed mice; conditions: C57BL/6 mice fed a high-fat diet; 6% in diet ad libitum; compared to EGCG, acetate, or their combination as separate compounds
Source text: Acylated catechin polyphenols disclosed herein may be useful in modulating cancer markers and for treating cancer.

SMILES | Assay 1 (SGF) (% Remaining @ 1 hours) [1] | Assay 2 (SIF) (% @ Remaining 4 hours) [2] | Assay 3 (% Remaining at 24 h) [3] | selective delivery to the upper intestine [2] | induction of CD4^+CD25^+ Treg cells (CD4^+CD25^+ Treg cells)
CC(=O)OC[C@H]1O[C@@H](Oc2c(C)c(C)c3c(c2C)CC[C@@](C)(CCC[C@H](C)CCC[C@H](C)CCCC(C)C)O3)[C@H](OC(C)=O)[C@@H](OC(C)=O)[C@@H]1OC(C)=O [Compound 19, [(2R,3R,4S,5R,6S)-3,4,5-triacetoxy-6-[(2R)-2,5,7,8-tetramethyl-2-[(4R,8R)-4,8,12-trimethyltridecyl]chroman-6-yl]oxy-tetrahydropyran-2-yl]methyl acetate] | C (>75% of the tested compound remaining) | C (>75% of the tested compound remaining) | C (>75% of the tested compound remaining) |  | 
CCCC(=O)Oc1cc(OC(=O)CCC)c2c(c1)O[C@H](c1cc(OC(=O)CCC)c(OC(=O)CCC)c(OC(=O)CCC)c1)[C@H](OC(=O)c1cc(OC(=O)CCC)c(OC(=O)CCC)c(OC(=O)CCC)c1)C2 [Compound 1, [(2R,3R)-5,7-di(butanoyloxy)-2-[3,4,5-tri(butanoyloxy)phenyl]chroman-3-yl] 3,4,5-tri(butanoyloxy)benzoate] | C (>75% of the tested compound remaining) | C (>75% of the tested compound remaining) | C (>75% of the tested compound remaining) |  | 
CCC(=O)Oc1cc(OC(=O)CC)c2c(=O)c(OC(=O)CC)c(-c3ccc(OC(=O)CC)c(OC(=O)CC)c3)oc2c1 [Compound 14, [4-[4-oxo-3,5,7-tri(propanoyloxy)chromen-2-yl]-2-propanoyloxy-phenyl] propanoate] | C (>75% of the tested compound remaining) | C (>75% of the tested compound remaining) | C (>75% of the tested compound remaining) |  | 
CCCC(=O)O[C@H](C)CC(=O)Oc1ccc(/C=C/c2cc(OC(=O)C[C@@H](C)OC(=O)CCC)cc(OC(=O)C[C@@H](C)OC(=O)CCC)c2)cc1 [Compound 16, [4-[(E)-2-[3,5-bis[[(3R)-3-butanoyloxybutanoyl]oxy]phenyl]vinyl]phenyl] (3R)-3-butanoyloxy-butanoate] | C (>75% of the tested compound remaining) |  | A (<25% of the tested compound remaining) |  | 
CCCC(=O)O[C@@H]1[C@@H](OC(=O)CCC)[C@@H](Oc2ccc(N)cc2C(=O)O)OC[C@@H]1OC(=O)CCC [Compound 17, 5-amino-2-[(2R,3R,4S,5S)-3,4,5-tri(butanoyloxy)tetrahydropyran-2-yl]oxy-benzoic acid] | C (>75% of the tested compound remaining) | A (<25% of the tested compound remaining) | C (>75% of the tested compound remaining) | can be selectively delivered to the upper intestine | 
CC(=O)Oc1cc(OC(C)=O)c2c(c1)O[C@H](c1cc(OC(C)=O)c(OC(C)=O)c(OC(C)=O)c1)[C@H](OC(=O)c1cc(OC(C)=O)c(OC(C)=O)c(OC(C)=O)c1)C2 [Compound 2, [(2R,3R)-5,7-diacetoxy-2-(3,4,5-triacetoxyphenyl)chroman-3-yl] 3,4,5-triacetoxybenzoate] | C (>75% of the tested compound remaining) | A (<25% of the tested compound remaining) | A (<25% of the tested compound remaining) | can be selectively delivered to the upper intestine | synergistic induction
